Data on one substance can be found in patent publication US20250051391A1, “PEPTIDE INHIBITORS AND METHODS FOR INHIBITING PROTEIN AGGREGATION IN NEURONS AND NEURODEGENERATIVE DISEASES” (THE GOVERNING COUNCIL OF THE UNIVERSITY OF TORONTO, priority 2021, published 2025).

Test [1] concerns HEK293 cells overexpressing WT or A53T a-syn. Description: Cell Titer-Glo cell viability assay in a-syn expressing cells. Particulars: HEK293 cells overexpressing WT or A53T a-syn, with or without MG132; expressed GFP-peptide or protein. Format: cell-based, human. Here is the method: Oligonucleotides encoding the specific peptides were synthesized and individually cloned into the pLJM1 nGFP lentiviral vector. Cells were infected with individual constructs, and cell viability was assessed using Cell Titer-Glo Luminescent assay (Promega) at 72 h post infection.
Cells were trypsinized from subconfluent cultures as described earlier, suspended in culture media, and then seeded into triplicate wells of a 96-well plate (100 μl well/1) at a density of 1.5×10^4 cells per well at standard culture conditions of 5% CO2 in air at 37° C. Cells were infected with lentivirus expressing peptide at an MOI of 5 for 72 h or transfected with plasmid for 72 h. Cell Titer-Glo reagent was added to each well (30 μL), according to the manufacturer's protocol and […].
Background: ATP-based viability assays read luminescence as a measure of living cells.

The subject of test [2] is A53T a-syn. In words: a-syn protein levels by immunoblot in HEK293 cells. Conditions: HEK293 cells expressing A53T a-syn. Format: cell-based, human. How it is done: Infected or transfected cells were scraped from 6-well dishes and lysed with lysis buffer (50 mM Tris-HCl pH7.4, 1% Nonidet P-40, 150 mM NaCl, 1 mM EDTA, 1× protease inhibitor mixture (Sigma)) for 30 min at 4° C. The insoluble pellet was removed following a 10,000 rpm spin for 5 minutes at 4° C. Lysates were analyzed by SDS-PAGE/immunoblot using 4-20% Mini-PROTEAN Tris-glycine gels (Bio-Rad) transferred to PVDF membranes and blocked in 5% milk containing PBS-Tween-20 (0.1%) for 1 h. PVDF membranes were then incubated with specified primary antibodies followed by incubation with horseradish peroxidase-conjugated secondary antibodies (Santa Cruz Biotechnology) and detected using enhanced chemiluminescence (GE Healthcare).
For orientation: Immunoblotting shows a protein as a band on a membrane.

The target in test [3] is VPS4. Particulars: motif-domain interaction, reference (20); read-out: affinity of CHMP2B-VPS4 interaction; cited from earlier work.

Entries after “also recorded” stand apart in the source; their conditions may differ.

Take “full-length CHMP2B: Charged Multivesicular Body Protein 2B, member of ESCRT-III, uniprot ID Q9UQN3”: the “cell viability / cytoprotective effect” value in test [1] was “rescues a-syn cytotoxicity”. The “a-syn protein levels by immunoblot” value in test [2] is given as “reduced a-syn protein levels; also recorded: reduces a-syn levels”. Moreover, the Kd in test [3] was 178 µM.
